Measured values as given in ChEMBL document CHEMBL1201862, “PubChem BioAssay data set” (2004).
Activity calls are given as the source filed them.

Experiments:
[1] = target: T1, Rac GTPase-activating protein 1 (Homo sapiens, UniProt Q9H0H5); test: blockers of MgcRacGAP-driven Rac1 GTP hydrolysis – biochemical, ADP Hunter fluorescence, primary and confirmatory, confirmation (AID 624330); type: functional
T1 sequence (Q9H0H5 whole entry): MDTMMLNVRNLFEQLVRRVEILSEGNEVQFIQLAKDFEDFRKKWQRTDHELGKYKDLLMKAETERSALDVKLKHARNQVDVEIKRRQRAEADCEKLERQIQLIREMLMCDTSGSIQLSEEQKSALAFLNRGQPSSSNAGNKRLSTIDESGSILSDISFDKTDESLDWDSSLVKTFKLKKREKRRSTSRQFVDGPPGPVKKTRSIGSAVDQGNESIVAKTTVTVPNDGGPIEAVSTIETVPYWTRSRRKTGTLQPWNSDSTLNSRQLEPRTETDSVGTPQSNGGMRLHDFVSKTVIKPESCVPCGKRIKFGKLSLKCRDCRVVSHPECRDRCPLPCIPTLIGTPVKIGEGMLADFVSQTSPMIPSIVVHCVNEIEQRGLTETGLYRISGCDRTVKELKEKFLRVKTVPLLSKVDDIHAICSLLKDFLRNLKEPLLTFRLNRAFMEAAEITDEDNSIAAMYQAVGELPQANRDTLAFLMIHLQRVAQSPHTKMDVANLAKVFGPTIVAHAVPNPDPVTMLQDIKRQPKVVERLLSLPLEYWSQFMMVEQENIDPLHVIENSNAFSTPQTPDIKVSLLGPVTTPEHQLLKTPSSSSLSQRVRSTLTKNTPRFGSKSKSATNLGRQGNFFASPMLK

[2] = target: T2, Heat shock factor protein 1 (Mus musculus, UniProt P38532); test: decrease of HSF1-responsive luciferase luminescence – cell-based, NIH3T3, dose retest, confirmation (AID 2382); type: functional;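 note: NIH3T3 fibroblasts with HSF1-driven luciferase reporter stressed by proteasome inhibitor MG132; luminescence from HSF1-driven luciferase expression after 8 hours of MG132 stress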
T2 sequence (P38532 whole entry): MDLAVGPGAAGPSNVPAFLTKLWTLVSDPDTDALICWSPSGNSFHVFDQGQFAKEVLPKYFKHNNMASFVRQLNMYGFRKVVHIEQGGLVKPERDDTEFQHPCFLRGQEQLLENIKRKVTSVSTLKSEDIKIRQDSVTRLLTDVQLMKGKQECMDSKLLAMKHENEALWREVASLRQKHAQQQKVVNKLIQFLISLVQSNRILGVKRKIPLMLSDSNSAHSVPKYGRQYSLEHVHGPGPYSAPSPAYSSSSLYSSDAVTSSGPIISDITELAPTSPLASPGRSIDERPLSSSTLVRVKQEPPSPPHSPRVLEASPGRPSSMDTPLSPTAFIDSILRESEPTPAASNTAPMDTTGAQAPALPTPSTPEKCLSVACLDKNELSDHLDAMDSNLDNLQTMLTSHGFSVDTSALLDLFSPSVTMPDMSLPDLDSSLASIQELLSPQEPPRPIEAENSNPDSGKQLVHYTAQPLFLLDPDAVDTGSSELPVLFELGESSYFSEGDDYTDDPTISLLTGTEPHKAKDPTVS

[3] = target: Luciferin 4-monooxygenase (Photinus pyralis, UniProt P08659); test: inhibition of purified Photinus pyralis luciferase – biochemical, luminescence, dose response (AID 1891)
Luciferin 4-monooxygenase, sequence (P08659 whole entry): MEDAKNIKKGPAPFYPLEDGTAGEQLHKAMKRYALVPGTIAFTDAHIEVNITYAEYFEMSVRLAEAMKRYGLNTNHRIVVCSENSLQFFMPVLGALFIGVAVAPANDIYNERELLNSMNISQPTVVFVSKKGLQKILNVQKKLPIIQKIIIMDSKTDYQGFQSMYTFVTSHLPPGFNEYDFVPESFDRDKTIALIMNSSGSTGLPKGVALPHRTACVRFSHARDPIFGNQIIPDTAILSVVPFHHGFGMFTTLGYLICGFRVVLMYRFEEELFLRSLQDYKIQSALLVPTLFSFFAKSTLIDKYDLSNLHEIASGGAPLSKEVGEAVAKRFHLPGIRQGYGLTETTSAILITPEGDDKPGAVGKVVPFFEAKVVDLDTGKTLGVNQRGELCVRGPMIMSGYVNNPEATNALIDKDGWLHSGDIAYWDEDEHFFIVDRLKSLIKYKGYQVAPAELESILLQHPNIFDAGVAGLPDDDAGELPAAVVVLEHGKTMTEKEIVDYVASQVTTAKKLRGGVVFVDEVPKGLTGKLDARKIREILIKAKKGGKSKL

[4] = Luminescence Cell-Based Dose Confirmation HTS to Identify Inhibitors of Platelet Dense Granule Release. [Related pubchem assays: 1663 (Primary HTS), 1678 (Summary of Project)]; type: functional
[5] = P. falciparum Dd2 growth inhibitors, dose response, SYBR Green, cherry-picked samples (AID 1159567); type: functional, cell-based
[6] = target: T3, Corticotropin-releasing factor receptor 2/Corticotropin-releasing factor-binding protein (Homo sapiens, UniProt P24387+Q13324); test: activators of CRF receptor 2 with binding protein – uHTS hits, confirmation (AID 602473); type: functional; conditions: read-out: EC50_Mean
T3 sequence (Q13324 whole entry): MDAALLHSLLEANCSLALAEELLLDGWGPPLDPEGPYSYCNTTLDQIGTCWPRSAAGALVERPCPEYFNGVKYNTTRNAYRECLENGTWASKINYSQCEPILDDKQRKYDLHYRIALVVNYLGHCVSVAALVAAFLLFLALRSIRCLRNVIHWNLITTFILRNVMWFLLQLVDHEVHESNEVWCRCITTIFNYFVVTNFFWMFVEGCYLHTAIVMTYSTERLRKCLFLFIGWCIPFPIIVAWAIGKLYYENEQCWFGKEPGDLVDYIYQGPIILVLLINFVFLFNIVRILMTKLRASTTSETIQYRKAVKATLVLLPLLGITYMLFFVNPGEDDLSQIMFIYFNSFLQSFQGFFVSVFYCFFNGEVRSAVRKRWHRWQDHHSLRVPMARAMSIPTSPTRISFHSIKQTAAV
T3 sequence (P24387 whole entry): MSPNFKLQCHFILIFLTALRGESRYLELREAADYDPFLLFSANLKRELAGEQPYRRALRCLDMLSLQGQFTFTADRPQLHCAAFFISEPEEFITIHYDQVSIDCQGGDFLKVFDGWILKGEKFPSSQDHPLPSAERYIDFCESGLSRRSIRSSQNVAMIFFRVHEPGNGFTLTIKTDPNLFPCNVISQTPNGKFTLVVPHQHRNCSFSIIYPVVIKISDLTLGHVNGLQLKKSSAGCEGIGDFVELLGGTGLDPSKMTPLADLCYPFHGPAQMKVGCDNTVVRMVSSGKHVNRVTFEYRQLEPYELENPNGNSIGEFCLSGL

[7] = target: T3, Corticotropin-releasing factor receptor 2/Corticotropin-releasing factor-binding protein; test: Dose Response confirmation of uHTS hits for small molecule antagonists of the CRF-binding protein and CRF-R2 receptor complex.; type: functional; conditions: read-out: IC50_Mean
[8] = Luminescence Cell-Based Dose Retest to Confirm Inhibitors of Cancer Stem Cells. [Related pubchem assays (depositor defined):AID2717, AID2721]; type: functional; conditions: Homo sapiens
[9] = target: Cytochrome P450 2C19 (Homo sapiens, UniProt P33261); test: Cytochrome panel assay with activity outcomes. Panel member name: p450-cyp2c19 Compounds with AC50 equal or less than 10 uM are considered active; type: functional; conditions: read-out: AC50
Cytochrome P450 2C19, sequence (P33261 whole entry): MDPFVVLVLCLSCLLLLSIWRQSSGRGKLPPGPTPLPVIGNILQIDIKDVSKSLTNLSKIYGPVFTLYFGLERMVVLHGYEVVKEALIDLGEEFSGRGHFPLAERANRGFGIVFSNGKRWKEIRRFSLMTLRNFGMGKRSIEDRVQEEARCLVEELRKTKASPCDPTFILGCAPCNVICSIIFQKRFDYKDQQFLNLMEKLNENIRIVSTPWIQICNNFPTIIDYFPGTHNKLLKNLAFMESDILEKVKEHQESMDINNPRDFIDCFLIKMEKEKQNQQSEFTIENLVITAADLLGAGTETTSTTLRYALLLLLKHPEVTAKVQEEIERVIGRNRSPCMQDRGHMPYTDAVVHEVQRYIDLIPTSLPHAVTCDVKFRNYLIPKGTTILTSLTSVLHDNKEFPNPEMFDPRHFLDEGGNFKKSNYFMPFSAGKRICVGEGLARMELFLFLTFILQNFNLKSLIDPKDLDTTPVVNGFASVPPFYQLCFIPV

[10] = target: Cytochrome P450 2C9 (Homo sapiens, UniProt P11712)
Cytochrome P450 2C9, sequence (P11712 whole entry): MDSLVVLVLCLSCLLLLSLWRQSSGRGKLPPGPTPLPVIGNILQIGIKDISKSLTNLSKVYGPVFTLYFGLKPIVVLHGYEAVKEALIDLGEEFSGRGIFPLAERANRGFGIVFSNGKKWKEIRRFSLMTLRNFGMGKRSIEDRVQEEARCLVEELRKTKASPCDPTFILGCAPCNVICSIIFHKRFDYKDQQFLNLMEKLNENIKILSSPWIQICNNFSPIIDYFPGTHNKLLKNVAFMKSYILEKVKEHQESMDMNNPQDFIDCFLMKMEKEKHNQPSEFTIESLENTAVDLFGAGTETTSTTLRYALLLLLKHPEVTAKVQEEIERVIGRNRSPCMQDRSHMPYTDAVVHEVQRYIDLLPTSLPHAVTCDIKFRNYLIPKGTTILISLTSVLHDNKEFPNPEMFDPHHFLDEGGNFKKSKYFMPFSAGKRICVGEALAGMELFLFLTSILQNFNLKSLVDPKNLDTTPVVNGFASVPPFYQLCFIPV

## COCC(C)NCc1ccccc1C (configuration not stated)
[1]
  IC50: 138 µM (active)

## CCOc1cc(/C=N/NC(=O)c2cccc(S(=O)(=O)N3CCOCC3)c2)ccc1OCC(=O)N(C)C
[2]
  EC50: > 195 µM (not active)

## O=C(Nc1cccc(O)c1)c1noc2c1CCc1ccccc1-2
[3]
  EC50: 1.03 µM (active)
[4]
  EC50: 8.29 µM (active)

## COc1ccc(CN2CC3(C2)CN(Cc2ccc4c(c2)OCO4)[C@H](CO)c2[nH]c4cc(OC)ccc4c23)cc1
[5]
  AC50: 3.49 µM (active)

## Cc1nc2oc3c(NCC4CCCO4)ncnc3c2c2c1COC(C)(C)C2 (configuration not stated)
[3]
  EC50: > 112 µM (not active)
[4]
  EC50: > 112 µM (not active)

## COc1ccc(N2C(=O)C(C)(C)C2c2c(O)ccc3ccccc23)cc1 (configuration not stated)
[2]
  EC50: > 195 µM (not active)

## Cc1sc2ncnc(N(C)CCc3ccccn3)c2c1C
[1]
  IC50: 148 µM (active)

## O=C(Nc1cccc(F)c1)C1CCN(C(=O)Cc2ccccc2)CC1
[3]
  EC50: > 112 µM (not active)
[4]
  EC50: > 112 µM (not active)

## CCOc1ccc(CN2CCN(CCCn3cccn3)CC2CCO)cc1 (configuration not stated)
[3]
  EC50: > 112 µM (not active)
[4]
  EC50: 83.2 µM (active)

## CCOc1cc(/C=N/NC(=O)C2CCCC2)ccc1O
[1]
  IC50: 52.1 µM (active)

## Cc1cc(-c2ccc(S(=O)(=O)N3CCN(c4ccccc4F)CC3)s2)on1
[3]
  EC50: > 112 µM (not active)
[4]
  EC50: > 112 µM (not active)

## COc1ccccc1S(=O)(=O)N[C@H]1CC[C@@H](CCn2cc(C3CCCC3)nn2)O[C@@H]1CO
[5]
  AC50: 11.5 µM (active)

## CC(C)(C)[S+]([O-])N1Cc2cc(C(=O)N[C@@H]3CCN(Cc4ccccc4)C3)nc(-c3cccc(C#CCC4CCCC4)c3)c2[C@H]1CCO (some centres not stated)
[5]
  AC50: 3.75 µM (active)

## CCCCn1c(=O)n(CC(=O)Nc2c(CC)cccc2CC)c(=O)c2c1nc(CO)n2CCC
[2]
  EC50: > 195 µM (not active)

## N#Cc1nc(Cc2ccccc2)oc1N1CCCC1
[3]
  EC50: 18.5 µM (active)
[4]
  EC50: > 112 µM (not active)

## Cc1ccccc1Nc1scc(-c2ccc(Br)cc2)[n+]1-c1ccccc1C
[6]
  EC50: > 53 µM (inactive)
[7]
  IC50: > 47.1 µM (inactive)

## CC(Cc1ccccc1)Nc1ncnc2c1ncn2C1OC(CO)C(O)C1O (configuration not stated)
[3]
  EC50: > 112 µM (not active)
[4]
  EC50: < 0.701 µM (active)

## CN1CCN(/N=C/c2nc(-c3ccccc3)n3ccccc23)CC1
[1]
  IC50: 29.1 µM (active)

## COc1ccc(Br)cc1CNC(=O)c1ccc2c(c1)N(C)CCS2
[3]
  EC50: > 112 µM (not active)
[4]
  EC50: > 112 µM (not active)

## CCCCNC(=O)CN=C(S)N(Cc1ccccc1)Cc1cccs1
[2]
  EC50: > 195 µM (not active)

## Cc1ccc(S(=O)(=O)NC(=NCc2ccccc2)c2ccc(F)cc2)cc1
[2]
  EC50: > 195 µM (not active)

## Nc1nc(NCc2ccco2)nc(NC2CCCCC2)c1[N+](=O)[O-]
[2]
  EC50: > 195 µM (not active)

## CCOC(=O)CSc1nnc(-c2ccccc2)c(-c2ccccc2)n1
[2]
  EC50: > 195 µM (not active)

## Cc1cc(NC(=O)CN2CCC(C)CC2)no1
[1]
  IC50: 253 µM (active)

## Cn1nc(N)c2ncc(C(Cl)(Cl)Cl)nc21
[6]
  EC50: > 53 µM (inactive)
[7]
  IC50: > 47.1 µM (inactive)

## CCc1nn(CC(=O)N2CCC(C(N)=O)CC2)c(=O)c2cc3occc3n12
[2]
  EC50: > 195 µM (not active)

## N#CC1(Nc2ccc3c4c(cccc24)CC3)CCCCC1
[1]
  IC50: 18.5 µM (active)

## CN1CCc2c(sc(NC(=O)c3ccc(S(=O)(=O)N4CCc5ccccc54)cc3)c2C(N)=O)C1
[8]
  AC50: 2.91 µM (active)

## CCn1c(C(=O)O)c(CC(=O)Nc2ccccc2OC)c2ccccc21
[2]
  EC50: > 195 µM (not active)

## CCCN(C(=O)CSc1n[nH]c(-c2ccc(OC)cc2)n1)c1c(N)n(Cc2ccccc2)c(=O)[nH]c1=O
[6]
  EC50: > 53 µM (inactive)
[7]
  IC50: > 47.1 µM (inactive)

## C[C@H]1CN([C@@H](C)CO)C(=O)c2cc(NC(=O)Cc3cn(C)c4ccccc34)ccc2O[C@H]1CN(C)S(=O)(=O)c1ccccc1
[5]
  AC50: 4.86 µM (active)

## O=c1cc(N2CCCCC2)c(-c2ccccc2)nn1Cc1ccccc1
[8]
  AC50: 2.06 µM (active)

## COc1ccc(Cn2nnnc2C(c2cccnc2)N2CCN(c3ccc(O)cc3)CC2)cc1 (configuration not stated)
[1]
  IC50: 39.6 µM (active)

## CC(C)=CCc1c(O)cc2c(=O)c3ccc(O)cc3oc2c1O
[8]
  AC50: 5.16 µM (active)

## CC(=O)Nc1ccc(NC(=O)C(C)OC(=O)C2CCCCC2)cc1 (configuration not stated)
[6]
  EC50: > 53 µM (inactive)
[7]
  IC50: > 47.1 µM (inactive)

## O=C1C2CCCN2c2ccc(S(=O)(=O)N3CCOCC3)cc2N1Cc1cccc(C(F)(F)F)c1 (configuration not stated)
[9]
  AC50: 3.55 µM (inconclusive)
[2]
  EC50: > 195 µM (not active)

## COc1ccc(C(=O)/C=C/c2ccc(O)cc2)cc1
[1]
  IC50: 37 µM (active)

## Cc1cccc(C(=N)NOC(=O)c2ccc(Cl)cc2Cl)c1
[3]
  EC50: 0.761 µM (active)
[4]
  EC50: 3.2 µM (active)

## Cc1ccc(S(=O)(=O)N2CCN(C(=O)c3c(-c4ccccc4)noc3C)CC2)c(C)c1
[2]
  EC50: > 195 µM (not active)

## Cc1cccc(CN2CCNC2=O)c1
[2]
  EC50: > 195 µM (not active)

## CC[C@@H]1CC=C[C@H]2[C@H]1C(=O)N(Cc1ccccc1)[C@H]2c1ccoc1
[8]
  AC50: 5.39 µM (active)

## CCN(CCO)Cc1csc2cccc(Br)c12
[9]
  AC50: 22.4 µM (inconclusive)
[6]
  EC50: > 53 µM (inactive)
[7]
  IC50: > 47.1 µM (inactive)

## CN(C)C(CNS(=O)(=O)c1ccc2ccccc2c1)c1ccccc1 (configuration not stated)
[8]
  AC50: > 195 µM (inactive)

## Cc1cccc(Nc2ccncc2S(=O)(=O)NC(=O)NC(C)C)c1 [TORSEMIDE]
[10]
  AC50: 12.6 µM (inconclusive)
[2]
  EC50: > 195 µM (not active)

## Nc1cc(OC(=O)c2ccco2)nn1S(=O)(=O)c1ccc(F)cc1
[6]
  EC50: > 53 µM (inactive)
[7]
  IC50: 34.8 µM (active)

## O=C(c1ccc(S(=O)(=O)Nc2ccccc2)cc1)N1CCCC1
[3]
  EC50: > 112 µM (not active)
[4]
  EC50: > 112 µM (not active)

## CC1=C(C(=O)OC(C)(C)C)C(c2cccc3ccccc23)NC(=O)N1 (configuration not stated)
[6]
  EC50: > 53 µM (inactive)
[7]
  IC50: > 47.1 µM (inactive)

## CCOC(=O)C1CCCN(C(=O)CCCn2nc(C)n3c(cc4sccc43)c2=O)C1 (configuration not stated)
[3]
  EC50: > 112 µM (not active)
[4]
  EC50: > 112 µM (not active)

## O=C(/C(=C/c1cccnc1)n1ccnc1)c1ccc(Cl)cc1Cl
[1]
  IC50: 223 µM (active)

## O=C(Cn1c(O)c(N=NC(=O)c2ccncc2)c2ccccc21)Nc1ccccc1
[3]
  EC50: > 112 µM (not active)
[4]
  EC50: > 112 µM (not active)
